From ChEMBL document CHEMBL3400036, “Novel 4-substituted-N,N-dimethyltetrahydronaphthalen-2-amines: synthesis, affinity, and in silico docking studies at serotonin 5-HT2-type and histamine H1 G protein-coupled receptors” (Bioorg Med Chem, 2015) come the findings set out here.

What all share (assay type): cell-based
The target in assay [1] is T1, 5-hydroxytryptamine receptor 2C (Homo sapiens, UniProt P28335).
T1 sequence (P28335 whole entry): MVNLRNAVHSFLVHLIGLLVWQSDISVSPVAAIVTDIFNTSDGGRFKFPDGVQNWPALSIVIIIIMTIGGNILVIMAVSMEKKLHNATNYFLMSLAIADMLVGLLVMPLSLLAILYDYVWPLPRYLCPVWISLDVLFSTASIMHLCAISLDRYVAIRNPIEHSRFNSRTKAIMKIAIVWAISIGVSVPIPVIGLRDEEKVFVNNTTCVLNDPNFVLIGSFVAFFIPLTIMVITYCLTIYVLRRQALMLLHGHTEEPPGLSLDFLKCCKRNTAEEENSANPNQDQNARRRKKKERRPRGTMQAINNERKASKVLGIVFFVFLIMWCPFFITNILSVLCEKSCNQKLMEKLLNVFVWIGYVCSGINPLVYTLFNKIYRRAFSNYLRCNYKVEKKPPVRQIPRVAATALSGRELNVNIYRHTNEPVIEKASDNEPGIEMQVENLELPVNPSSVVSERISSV
The assay can be described thus: Displacement of [3H]Mesulergine from human 5-HT2C-INI receptor expressed in HEK293 cells by scintillation counting analysis. For orientation: In a radioligand displacement assay an active substance lowers the binding of a labelled ligand.

Assay [2] deals with 5-hydroxytryptamine receptor 2B (Homo sapiens, UniProt P41595). The assay can be described thus: Displacement of [3H]Mesulergine from human 5-HT2B receptor expressed in HEK293 cells by scintillation counting analysis.
Sequence of 5-hydroxytryptamine receptor 2B (P41595 whole entry): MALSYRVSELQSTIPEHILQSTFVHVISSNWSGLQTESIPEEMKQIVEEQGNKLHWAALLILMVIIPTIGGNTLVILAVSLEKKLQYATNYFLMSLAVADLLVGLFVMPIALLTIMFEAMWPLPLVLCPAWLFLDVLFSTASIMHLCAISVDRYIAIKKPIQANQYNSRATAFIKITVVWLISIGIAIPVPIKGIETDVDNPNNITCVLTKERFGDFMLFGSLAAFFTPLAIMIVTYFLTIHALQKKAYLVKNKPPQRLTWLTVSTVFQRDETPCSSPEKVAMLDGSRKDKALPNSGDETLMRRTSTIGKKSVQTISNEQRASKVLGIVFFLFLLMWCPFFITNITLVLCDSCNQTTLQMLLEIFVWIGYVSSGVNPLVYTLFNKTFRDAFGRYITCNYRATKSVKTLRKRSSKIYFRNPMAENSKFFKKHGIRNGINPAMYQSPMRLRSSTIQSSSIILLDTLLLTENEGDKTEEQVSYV
For assay [3], the target named is 5-hydroxytryptamine receptor 2A (Homo sapiens, UniProt P28223). The assay can be described thus: Displacement of [3H]Ketanserin from human 5-HT2A receptor expressed in HEK293 cells by scintillation counting analysis.
Sequence of 5-hydroxytryptamine receptor 2A (P28223 whole entry): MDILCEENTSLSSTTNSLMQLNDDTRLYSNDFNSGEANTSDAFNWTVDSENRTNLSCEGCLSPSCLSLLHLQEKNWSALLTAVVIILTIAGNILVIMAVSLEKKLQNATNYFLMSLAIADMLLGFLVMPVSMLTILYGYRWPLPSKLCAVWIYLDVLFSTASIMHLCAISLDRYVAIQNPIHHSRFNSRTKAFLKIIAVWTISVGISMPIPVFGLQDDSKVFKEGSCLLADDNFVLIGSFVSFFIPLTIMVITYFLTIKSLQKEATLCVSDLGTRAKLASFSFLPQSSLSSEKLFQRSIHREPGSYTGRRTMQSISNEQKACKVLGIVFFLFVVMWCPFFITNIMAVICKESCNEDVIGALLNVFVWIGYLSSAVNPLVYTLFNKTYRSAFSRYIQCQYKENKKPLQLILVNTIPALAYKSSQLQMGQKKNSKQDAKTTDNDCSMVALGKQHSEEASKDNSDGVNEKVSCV

On to `CN(C)[C@@H]1Cc2ccccc2[C@@H](c2cccc(Br)c2)C1`, for which the Ki in assay [1] was 4 nM; in assay [2], 8 nM; in assay [3], 20 nM.
For the compound `CN(C)[C@H]1Cc2ccccc2[C@H](c2ccc(F)cc2)C1`, the Ki turned out to be 75 nM in assay [1], 66 nM in assay [2] and 71 nM in assay [3].
The corresponding values for `CN(C)[C@H]1Cc2ccccc2[C@H](c2cccc(Cl)c2)C1` are […], 50 nM and […].
For the compound `CN(C)[C@H]1Cc2ccccc2[C@H](C2CCCCCCC2)C1`, the Ki in assay [2] was determined as 40 nM.
Consider `CN(C)[C@H]1Cc2ccccc2[C@H](c2cccc(-c3ccccc3)c2)C1`, for which the Ki was 1000 nM in assay [1] and 200 nM in assay [2].
As to `CN(C)[C@@H]1Cc2ccccc2[C@@H](C2CCCCC2)C1`, the Ki was found to be 7 nM in assay [1], 20 nM in assay [2] and 20 nM in assay [3].
In the case of `CN(C)[C@H]1Cc2ccccc2[C@H](c2ccccc2Br)C1`, the Ki in assay [1] is 78 nM; in assay [2] it was 4100 nM; in assay [3], 760 nM.
As to `CN(C)[C@H]1Cc2ccccc2[C@H](c2ccccc2)C1`, the Ki stood at 240 nM in assay [2] and 470 nM in assay [3].
For the compound `CN(C)[C@H]1Cc2ccccc2[C@H](c2ccc(Cl)cc2)C1`, the Ki in assay [1] came out at 55 nM; in assay [2], 80 nM; in assay [3] it was 50 nM.
On the same counts, the results for `CN(C)[C@H]1Cc2ccccc2[C@H](c2cccc([N+](=O)[O-])c2)C1` are 120 nM, 20 nM and 500 nM.
On the same counts, the results for `CN(C)[C@H]1Cc2ccccc2[C@H](c2cccc(C(F)(F)F)c2)C1` are 230 nM, 200 nM and 1300 nM.
On to `Cc1ccccc1[C@H]1C[C@H](N(C)C)Cc2ccccc21`, for which the Ki in assay [1] stood at 1600 nM; in assay [2], 800 nM; in assay [3] it was 1000 nM.
On the same counts, the results for `CN(C)[C@H]1Cc2ccccc2[C@H](c2ccccc2Cl)C1` are 50 nM, 710 nM and 2800 nM.
On the same counts, the results for `CN(C)[C@@H]1Cc2ccccc2[C@@H](c2ccc(Cl)cc2)C1` are 120 nM, 300 nM and 250 nM.
As for `CN(C)[C@H]1Cc2ccccc2[C@H](c2cccc(Br)c2)C1`, the Ki came to 200 nM in assay [1], 40 nM in assay [2] and 260 nM in assay [3].
The corresponding values for `CN(C)[C@@H]1Cc2ccccc2[C@@H](c2ccc(F)cc2)C1` are 68 nM, 400 nM and 140 nM.
Turning to `CN(C)[C@H]1Cc2ccccc2[C@H](c2ccc(Br)cc2)C1`, the Ki was 70 nM in assay [1], 30 nM in assay [2] and 60 nM in assay [3].
On the same counts, the results for `CN(C)[C@@H]1Cc2ccccc2[C@@H](c2ccc(Br)cc2)C1` are 100 nM, 210 nM and 220 nM.
`Cc1ccccc1[C@@H]1C[C@@H](N(C)C)Cc2ccccc21`: the Ki in assay [1] came out at 2000 nM; in assay [2], 6000 nM; in assay [3], 700 nM.
For the compound `CN(C)[C@@H]1Cc2ccccc2[C@@H](C2CCCCCCC2)C1`, the Ki in assay [2] is 10 nM.
Turning to `CN(C)[C@@H]1Cc2ccccc2[C@@H](c2cccc([N+](=O)[O-])c2)C1`, the Ki in assay [1] stood at 10 nM; in assay [2], 70 nM; in assay [3], 74 nM.
On the same counts, the results for `CN(C)[C@@H]1Cc2ccccc2[C@@H](c2ccccc2Cl)C1` are 290 nM, 300 nM and 2400 nM.
In the case of `CN(C)[C@H]1Cc2ccccc2[C@H](c2ccc(C(F)(F)F)cc2)C1`, the Ki in assay [2] was determined as 250 nM.
For `CN(C)[C@@H]1Cc2ccccc2[C@@H](c2cccc(C(F)(F)F)c2)C1`, the values for the Ki in assay [1], in assay [2] and in assay [3] were 10 nM, 60 nM and 80 nM, respectively.
The corresponding values for `CN(C)[C@H]1Cc2ccccc2[C@H](C2CCCCC2)C1` are 30 nM, 170 nM and 80 nM.
For `CN(C)[C@@H]1Cc2ccccc2[C@@H](c2cccc(-c3ccccc3)c2)C1`, the Ki in assay [1] was determined as 5 nM; in assay [2], 73 nM.
Take `CN(C)[C@@H]1Cc2ccccc2[C@@H](c2ccccc2Br)C1`: the Ki in assay [1] was determined as 70 nM; in assay [2], 650 nM; in assay [3], 1100 nM.
For `CN(C)[C@@H]1Cc2ccccc2[C@@H](c2ccccc2)C1`, the Ki is 94 nM in assay [2] and 100 nM in assay [3].
With `CN(C)[C@H]1Cc2ccccc2[C@H](c2cccc(F)c2)C1`, the inhibition constant (Ki) in assay [1] amounted to 200 nM; in assay [2], 110 nM.
For the compound `CN(C)[C@@H]1Cc2ccccc2[C@@H](c2cccc(Cl)c2)C1`, the Ki in assay [1] was found to be […]; in assay [2], 30 nM; in assay [3], […].
On to `CN(C)[C@@H]1Cc2ccccc2[C@@H](c2cccc(F)c2)C1`, for which the Ki is 43 nM in assay [1] and 70 nM in assay [2].

As a reminder, the Ki is the equilibrium dissociation constant of an inhibitor or competing ligand from its target. A lower Ki goes with higher affinity.
